Reference: patent US9381148B2, “Composition comprising particulate zinc material with a high relative zinc lability” (priority 2003, dated 2016)
Like-named read-outs stand apart in the source and are kept apart here.

Assays:
[1] = zinc salt of the counterion; reference A, selected literature data for 25–30° C.; cited from earlier work
[2] = Excerpt: Those materials with high potential to bind to the PZM surface are ZBM's that form only sparingly soluble salts with zinc in water. “Sparingly soluble” refers to zinc salts with 1 gram(g)/100 g water solubility or less. These are the materials that form precipitated surface species on the PZM that interfere with zinc lability. A summary of the solubilities of common zinc salts is shown below: […]

| Molecule | Solubility (g/100 g water) ([2]; pH 7) | other results |
| --- | --- | --- |
| [O-][Cl+3]([O-])([O-])O [Perchlorate] | – | Solubility (g/100 g water) [1]: 113.5 g/100 g water |
| O=C(O)c1ccccc1O [Salicylate] | 0.29 | – |
| Phosphate | 0.0013 | – |
| Laurate | – | Solubility (g/100 g water) ([2]; zinc salt of the counterion, reference B, commercially sourced materials (Pfaltz & Bauer), water at pH 7 and room temperature, filtered, ICP): 0.012 g/100 g water |
